Results: publication PMC5329948, “Caspase vinyl sulfone small molecule inhibitors prevent axonal degeneration in human neurons and reverse cognitive impairment in Caspase-6-overexpressing mice” (Molecular Neurodegeneration, 2017)

Assays:
[1] = target: T1, recombinant Caspase-2 (Homo sapiens, UniProt P42575); assay: Caspase Inhibitor Drug Screening Kit (BioVision), VDVAD-AFC substrate; format: biochemical; conditions: not active site titrated
T1 construct: purchased BioVision
Description: (§1) The half-maximal inhibitory concentrations (IC50) for NWL inhibitors (Patent publication # WO/2009/140765, WO/2010/133000, and WO/2012/140500) was determined by incubating 0 to 20 μM NWL-117 and NWL-154 with 20 nM of active site-titrated Casp6 in SB at room temperature for 5 minutes. Then, 10 μM Ac-VEID-AFC was added and fluorescence measured for 20 min at 37 °C as described above. New World Laboratories performed the IC50 determination for NWL inhibitors dissolved in dimethyl sulfoxide (DMSO) against recombinant Casp1-10 using the Caspase Inhibitor Drug Screening Kits (BioVision, San Francisco, CA) following the manufacturer’s instructions and the preferred substrates for the caspases (Caspase-1: WAD-AFC, Caspase-2: VDVAD-AFC, Caspase-3: DEVD-AFC, Caspase-4: LEVD-AFC, Caspase-5: WEHD-AFC, Casp6:VEID-AFC, Caspase-7: DEVD-AFC, Caspase-8: IETD-AFC, Caspase-9: LEHD-AFC, Caspase-10: AEVD-AFC). In transfected HCT116 cells, 0 to 100 μM NWL inhibitors were added in the culture media and left on the cells for 2 h. Cells were washed once with 1 mL ice-cold PBS, incubated on ice for 5 min with 200 μL cell lysis buffer (CLB) (50 mM HEPES, 0.1% CHAPS, 0.1 mM EDTA), and gently scraped off. Protein concentrations were determined by Bradford assay (BioRad, Mississauga, ON, CA) by measuring the absorbance at 595 nm using the BioTek Synergy H4 plate reader. […]

[2] = tested on: APPWT-transfected primary human CNS neurons; assay: Neuritic beading/degeneration in APPWT-transfected primary human neurons; format: cell-based; conditions: for neuritic beading: APPWT/EGFP co-expression, 48 h; for neuritic beading / percentage of beaded neurons, fold of EGFP-alone: NWL 100 μM, Z-VEID-fmk 5 μM; for percentage of beaded neurons, fold of EGFP-alone: live imaging 72 h, APPWT vehicle 1.52, EGFP-alone 1.00, mean ± SEM
Description: Immunofluorescence on human neuron cultures: Primary human neurons were pre-treated 2 h and serum-deprived in the presence of 100 μM NWL-117, 100 μM NWL-154, or 5 μM Z-VEID-fmk (Biomol, Plymouth meeting, PA, USA) for 24 h. Following treatment, human neurons were washed once with warm PBS, fixed for 20 min at room temperature with 4% paraformaldehyde (Sigma, Oakville, ON, CA)/4% sucrose (BioRad, Mississauga, ON, CA) for TubΔCasp6 or 2% formaldehyde (Thermo Fisher Scientific, Waltham, MA, USA)/0.2% glutaraldehyde (Sigma, Oakville, ON, CA) for pBudEGFP or pBudEGFP/APP^WT-transfected neurons, incubated in permeabilization buffer (0.1% Triton X-100, 0.1 sodium citrate) for 1 min on ice, washed with PBS, blocked for 20 min at room temperature with 10% goat serum (Sigma, Oakville, ON, CA), and incubated with primary antibodies diluted in 10% goat serum in PBS overnight at 4 °C in a humid chamber. The glass coverslips were washed with PBS, and incubated with goat anti-rabbit secondary antibody coupled to Alexa 488 (Molecular Probes, Eugene, OR, USA) or Cy3 (GE Healthcare Life Sciences, Baie D’Urfe, QC, CA) and Hoechst 33342 (ImmunoChemistry, Bloomington, MN, USA) at 1 μg/mL for 2 h at room temperature. The coverslips were washed with PBS and rinsed in Milli-Q water before mounting in fluoromount (Dako, Burlington, ON, CA). Images were acquired by fluorescence microscopy and quantified using the ImageJ software (NIH, Bethesda, MD, USA) for TubΔCasp6 and manually counted for transfected EGFP(+)-neurons. Time lapse-imaging by live fluorescence microscopy: Primary human neurons were transfected with gold beads coated with pBudEGFP or pBudEGFP/APP^WT using a Helios Gene gun (BioRad, Mississauga, ON, CA). Briefly, cells were pre-treated with 100 μM NWL inhibitors or 5 μM Z-VEID-fmk for 2 h. The media was removed and the neurons were shot at 100 psi. The media was quickly replaced with the inhibitors present. The plasmid was expressed for 16 h before setting up the fluorescence microscope (Nikon Eclipse Ti) to acquire 20 images per condition every hour for 72 h at 37 °C with 5% CO2. The images were analyzed by counting the total number of neurons (50–100 neurons per condition per independent experiment), and the number of beaded, swollen soma, and healthy neurons. In addition, the time at which cells beaded was noted. Phase contrast microscopy: HCT116 cells, plated at a density of 1×10^5 cells/well and human neurons, plated at a density of 6×10^6 cells/well on poly-L-lysine were treated with PBS, 100 μM NWL-117, 100 μM NWL-154, or 2 μM staurosporine (Biomol, Plymouth meeting, PA, USA) for 24 h. Images were acquired with the Nikon Eclipse Ti microscope and the NIS-Elements (Version 3.10) software.

[3] = target: T2, recombinant Caspase-3 (Homo sapiens, UniProt P42574); assay: Caspase Inhibitor Drug Screening Kit (BioVision), DEVD-AFC substrate; format: biochemical; conditions: not active site titrated
T2 construct: purchased BioVision
T2 sequence (P42574 29-277): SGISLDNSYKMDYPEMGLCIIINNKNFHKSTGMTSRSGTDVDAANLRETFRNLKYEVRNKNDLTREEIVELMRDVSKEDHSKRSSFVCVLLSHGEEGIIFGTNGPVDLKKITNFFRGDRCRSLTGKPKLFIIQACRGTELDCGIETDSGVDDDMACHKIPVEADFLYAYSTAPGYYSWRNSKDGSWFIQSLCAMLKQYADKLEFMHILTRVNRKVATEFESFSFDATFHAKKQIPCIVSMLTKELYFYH
Description: (§2) The half-maximal inhibitory concentrations (IC50) for NWL inhibitors (Patent publication # WO/2009/140765, WO/2010/133000, and WO/2012/140500) was determined by incubating 0 to 20 μM NWL-117 and NWL-154 with 20 nM of active site-titrated Casp6 in SB at room temperature for 5 minutes. Then, 10 μM Ac-VEID-AFC was added and fluorescence measured for 20 min at 37 °C as described above. New World Laboratories performed the IC50 determination for NWL inhibitors dissolved in dimethyl sulfoxide (DMSO) against recombinant Casp1-10 using the Caspase Inhibitor Drug Screening Kits (BioVision, San Francisco, CA) following the manufacturer’s instructions and the preferred substrates for the caspases (Caspase-1: WAD-AFC, Caspase-2: VDVAD-AFC, Caspase-3: DEVD-AFC, Caspase-4: LEVD-AFC, Caspase-5: WEHD-AFC, Casp6:VEID-AFC, Caspase-7: DEVD-AFC, Caspase-8: IETD-AFC, Caspase-9: LEHD-AFC, Caspase-10: AEVD-AFC). In transfected HCT116 cells, 0 to 100 μM NWL inhibitors were added in the culture media and left on the cells for 2 h. Cells were washed once with 1 mL ice-cold PBS, incubated on ice for 5 min with 200 μL cell lysis buffer (CLB) (50 mM HEPES, 0.1% CHAPS, 0.1 mM EDTA), and gently scraped off. Protein concentrations were determined by Bradford assay (BioRad, Mississauga, ON, CA) by measuring the absorbance at 595 nm using the BioTek Synergy H4 plate reader. Caspase-6 activity was measured in 40–60 μg total protein as described above. The IC50 for recombinant and cellular caspases were determined using GraphPad Prism 5.0 (La Jolla, CA, USA) using a log (inhibitor) – response curve with a Hill slope of −1.

[4] = target: T3, recombinant Caspase-7 (Homo sapiens, UniProt P55210); assay: as above; format: biochemical; conditions: not active site titrated
T3 construct: purchased BioVision
T3 sequence (P55210 whole entry): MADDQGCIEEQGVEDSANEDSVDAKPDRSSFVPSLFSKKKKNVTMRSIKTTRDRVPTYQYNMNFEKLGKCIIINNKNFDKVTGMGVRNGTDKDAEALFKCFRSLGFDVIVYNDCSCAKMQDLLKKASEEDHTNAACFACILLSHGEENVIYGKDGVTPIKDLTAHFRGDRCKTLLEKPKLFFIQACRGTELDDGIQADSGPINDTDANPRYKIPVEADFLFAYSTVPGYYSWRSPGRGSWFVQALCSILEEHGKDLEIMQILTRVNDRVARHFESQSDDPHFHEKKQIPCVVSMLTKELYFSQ
Description: as §2

[5] = target: T4, recombinant Caspase-8 (Homo sapiens, UniProt Q14790); assay: Caspase Inhibitor Drug Screening Kit (BioVision), IETD-AFC substrate; format: biochemical; conditions: not active site titrated
T4 construct: purchased BioVision
T4 sequence (Q14790 217-479): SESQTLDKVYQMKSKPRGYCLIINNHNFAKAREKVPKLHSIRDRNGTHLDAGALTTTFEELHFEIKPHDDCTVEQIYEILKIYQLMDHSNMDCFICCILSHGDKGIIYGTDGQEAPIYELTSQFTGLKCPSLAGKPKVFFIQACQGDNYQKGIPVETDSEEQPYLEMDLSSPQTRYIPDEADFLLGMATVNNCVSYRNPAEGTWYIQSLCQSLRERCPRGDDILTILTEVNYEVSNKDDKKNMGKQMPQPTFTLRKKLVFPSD
Description: as §1

[6] = target: T5, recombinant Caspase-1 (Homo sapiens, UniProt P29466); assay: Caspase Inhibitor Drug Screening Kit (BioVision), WAD-AFC substrate; format: biochemical; conditions: not active site titrated
T5 construct: purchased BioVision
T5 sequence (P29466 120-404): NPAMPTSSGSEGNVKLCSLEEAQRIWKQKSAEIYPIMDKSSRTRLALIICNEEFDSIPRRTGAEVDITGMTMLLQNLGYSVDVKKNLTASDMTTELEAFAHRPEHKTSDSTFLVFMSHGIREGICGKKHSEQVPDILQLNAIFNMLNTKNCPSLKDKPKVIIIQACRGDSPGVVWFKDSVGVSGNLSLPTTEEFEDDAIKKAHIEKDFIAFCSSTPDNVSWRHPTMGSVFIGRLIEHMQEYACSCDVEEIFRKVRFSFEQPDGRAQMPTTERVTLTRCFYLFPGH
Description: as §1

[7] = APPWT-transfected neurons, live imaging, 100 μM

T1 sequence (P42575 whole entry): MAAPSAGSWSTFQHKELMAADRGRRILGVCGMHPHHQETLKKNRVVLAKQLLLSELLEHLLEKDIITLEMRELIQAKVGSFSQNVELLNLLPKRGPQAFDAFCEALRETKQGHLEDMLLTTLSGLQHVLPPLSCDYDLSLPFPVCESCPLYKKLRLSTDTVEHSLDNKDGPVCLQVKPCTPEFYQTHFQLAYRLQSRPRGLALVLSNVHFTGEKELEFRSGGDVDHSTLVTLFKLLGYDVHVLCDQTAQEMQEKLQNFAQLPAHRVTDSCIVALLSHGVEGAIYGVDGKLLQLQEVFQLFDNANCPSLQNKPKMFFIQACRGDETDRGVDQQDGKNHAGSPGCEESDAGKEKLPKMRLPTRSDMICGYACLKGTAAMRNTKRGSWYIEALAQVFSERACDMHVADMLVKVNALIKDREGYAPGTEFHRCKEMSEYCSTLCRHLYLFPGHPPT

SMILES | IC50 [1] [µM] | neuronal soma rounding [2, 7] | neuronal survival (neurons with homogeneously distributed EGFP) [2, 7] | neuritic beading [2] | percentage of beaded neurons, fold of EGFP-alone [2] [fold] | IC50 [3] [µM] | IC50 [4] [µM] | IC50 [5] [µM] | IC50 [6] [µM]
CCC(C)[C@H](NC(=O)[C@H](CCC(=O)O)NC(=O)[C@@H](NC(=O)OCc1ccccc1)C(C)C)C(=O)N[C@H](/C=C/S(C)(=O)=O)CC(=O)O (stereo partly shown) [NWL-117] | > 100 | inhibited | significantly increases neuronal survival | prevented neuritic beading | 0.84 | 6.96 | > 100 | 0.66 | 2.7
CCC(C)[C@H](NC(=O)[C@H](CCC(=O)O)NC(=O)[C@@H](NC(=O)OCc1ccccc1)C(C)C)C(=O)N[C@H](/C=C(\Cl)S(C)(=O)=O)CC(=O)O (stereo partly shown) [NWL-154] | > 100 |  |  | prevented neuritic beading | 1.07 | 1.34 | > 100 | 0.53 | 3.85
